# Measured values from patent publication US4091006A, “Esters of 3-hydroxyindone compounds” (priority 1975, dated 1978).
# Tests used:
# [1] = tested on: Perennial rye grass, crabgrass, red root pigweed, mustard; test: Preliminary Herbicide Seed Germination Test; settings: each rated 1 (no injury) to 5 (no seedlings emerged)
# From the text: The thus-prepared stock suspension contained 0.5 percent by weight of compound. The test concentrations employed in the tests described hereinbelow were obtained by diluting the stock suspension with water. The test procedures were as follows:
# The following seeds were used in this test:
# Crabgrass -- Digitaria san-
# Mustard -- Brassica pincea var.
# Each of above mixtures is rolled separately in 5 gallon containers for approximately one-half hour on ball mill to insure uniform mixing of seeds and soil. For each compound four 3-inch pots are filled with soil to within 11/2 inches of top of pots. To 2 of these pots are added 70 cc. of Mixture I. To the remaining 2 pots are added 70 cc. of Mixture II. The seed-soil mixture is tamped firmly, and the pots are removed to the greenhouse and watered lightly. About 2 hours after planting, 25 milliliters of the test formulation were added to each of 2 pots for each soil-seed mixture; i.e., one replicate of each seed mixture per concentration. An equal volume of a water solution containing acetone and an emulsifier in the same concentration as the herbicidal mixture but without the candidate herbicide is also added to each of the soil-seed mixtures. These pots are used as check or control units. The test compounds are formulated by standard procedure of solution in acetone, addition of an emulsifier, and dilution with water. Tests were conducted on all compositions at low concentration (100 ppm.). Certain compositions were also tested at high concentration (1000 ppm). The pots were held in the greenhouse and watered lightly until results were taken. Ten to twelve days after application of chemical, injury is noted for each species by comparing treated vs. untreated pots. Ratings are made at both the high and the low concentrations (1000 ppm and 100 ppm) according to the following designations:
# 4 = few seedlings emerged and/or very severe stunting
# 3 = moderate reduction in stand and/or moderate stunting
# 2 = very slight reduction in stand and/or slight stunting
# 1 = no injury; seedlings appear no different with respect to stand or growth than untreated controls
# Accordingly, the maximum rating for one test seed species tested at both high and low concentration is 10 and the maximum possible total preemergence rating is 40 (10 for each of the four test seed species). […] In some tests the crabgrass experiment was omitted. In these tests the maximum total rating for species tested at both high and low concentrations is 30 and 15 for species tested only at low concentrations.
# [2] = tested on: egg of the two-spotted mite; test: Mite Ovicide Test; assay type: in vivo, Tetranychus urticae (Koch); design: key to Mite Ova rating: 1: no mortality; 3: an approximately 50% mortality; 5: 100% mortality; settings: spray on eggs, 4 days
# From the text: (§1) The test procedures were as follows:
# The plants were allowed to dry thoroughly.
# (§2) Compositions were rated on the basis of percent kill with a rating of 1 indicating no mortality; 3 signifying an approximately 50% mortality and 5 indicating 100% mortality at the indicated dosage.
# [3] = tested on: adults and nymphal stages of the two-spotted mite; test: Mite Foliage Spray Test; assay type: in vivo, Tetranychus urticae (Koch); design: key: 1: no mortality; 3: an approximately 50% mortality; 5: 100% mortality; settings: 4 days
# From the text: as §1, §2
# [4] = rating/maximum 20: 100 ppm only, four species
# [5] = rating/maximum 40: 100 and 1000 ppm, four species, 10-12 days
# [6] = rating/maximum 30: 100 and 1000 ppm, crabgrass omitted
# [7] = rating/maximum 15: 100 ppm only, crabgrass omitted
Molecule,"Herbicide (total preemergence rating) [1, 4]",Mite Ova rating [2],Mite Adult rating [3],"Herbicide (total preemergence rating) [1, 5]","Herbicide (total preemergence rating) [1, 6]","Herbicide (total preemergence rating) [1, 7]"
"Cc1cc(C)c(C2=C(OC(=O)NC(C)(C)C)c3ccccc3C2=O)c(C)c1 [2-(2',4',6'-Trimethylphenyl)-3-(N-(t-butyl)carbamoyloxy)indone]",15/20,5 (100% mortality),5 (100% mortality),–,–,–
"CCCCCCCCCCCCC(=O)OC1=C(c2cc(C)ccc2C)C(=O)c2ccccc21 [2-(2',5'-Dimethylphenyl)-3-(tridecanoyloxy)indone]",4/20,5 (100% mortality),1,–,–,–
"Cc1ccccc1C(=O)OC1=C(c2c(Cl)cccc2Cl)C(=O)c2ccccc21 [3-(2-Methylbenzoyloxy)-2-(2',6'-dichlorophenyl)indone]",–,5 (100% mortality),5 (100% mortality),31/40,–,–
"CCCCN(CCCC)C(=O)OC1=C(c2c(C)cc(C)cc2C)C(=O)c2ccccc21 [2-(2',4',6'-Trimethylphenyl)-3-(N,N-di(butyl)carbamoyloxy)indone]",10/20,1,3 (an approximately 50% mortality),–,–,–
"Cc1cc(C)c(C2=C(OC(=O)N3CCOCC3)c3ccccc3C2=O)c(C)c1 [2-(2',4',6'-Trimethylphenyl)-3-(4-(morpholino)carbonyloxy)indone]",4/20,5 (100% mortality),3 (an approximately 50% mortality),–,–,–
CCCCCCCCCCCCCCCCCC(=O)OC1=C(c2ccccc2Cl)C(=O)c2ccccc21 [2-(2'-Chlorophenyl)-3-(stearoyloxy)indone],4/20,5 (100% mortality),1,–,–,–
"Cc1cccc(C(=O)OC2=C(c3c(C)cc(C)cc3C)C(=O)c3ccccc32)c1 [3-(3-Methylbenzoyloxy)-2-(2',4',6'-trimethylphenyl)indone]",–,5 (100% mortality),5 (100% mortality),26/40,–,–
CC(C)(C)C(=O)OC1=C(c2ccccc2Br)C(=O)c2ccccc21 [2-(2'-Bromophenyl)-3-(pivaloyloxy)indone],–,5 (100% mortality),5 (100% mortality),14/40,–,–
"Cc1cc(C)c(C2=C(OC(=O)c3c(Cl)cccc3Cl)c3ccccc3C2=O)c(C)c1 [3-(2,6-Dichlorobenzoyloxy)-2-(2',4',6'-trimethylphenyl)indone]",–,1,1,8/40,–,–
"COc1cccc(C(=O)OC2=C(c3c(C)cc(C)cc3C)C(=O)c3ccccc32)c1 [3-(3-Methoxybenzoyloxy)-2-(2',4',6'-trimethylphenyl)indone]",–,5 (100% mortality),5 (100% mortality),–,25/30,–
CCCCC(CC)C(=O)OC1=C(c2cccc3ccccc23)C(=O)c2ccccc21 (stereo not drawn) [3-(2-Ethylhexanoyloxy)-2-(1-Naphthyl)indone],14/20,1,1,–,–,–
"O=C(OC1=C(c2c(Cl)cccc2Cl)C(=O)c2ccccc21)c1ccc([N+](=O)[O-])cc1 [3-(4-Nitrobenzoyloxy)-2-(2',6'-dichlorophenyl)indone]",–,5 (100% mortality),5 (100% mortality),–,25/30,–
CC(C)c1cccc(C(C)C)c1C1=C(OC(=O)C(C)(C)C)c2ccccc2C1=O [2-(2'6'-diisopropyl)phenyl-3-pivaloyloxyindone],–,1,1,–,–,3/15
CCc1cccc(C)c1C1=C(OC(=O)C(C)(C)C)c2ccccc2C1=O [2-(2'-Ethyl-6'-methylphenyl)-3-(pivaloyloxy)indone],–,5 (100% mortality),5 (100% mortality),–,–,14/15
Cc1cccc(Cl)c1C1=C(OC(=O)C(C)(C)C)c2ccccc2C1=O [2-(2'-Chloro-6'-methylphenyl)-3-(pivaloyloxy)indone],–,5 (100% mortality),5 (100% mortality),33/40,–,–
CC(C)(C)C(=O)OC1=C(c2ccccc2)C(=O)c2ccccc21 [2-Phenyl-3-(pivaloyloxy)indone],–,1,1,8/40,–,–
"Cc1cccc(C)c1C1=C(OC(=O)C(C)(C)C)c2ccccc2C1=O [2-(2',6'-Dimethylphenyl)-3-(pivaloyloxy)indone]",–,5 (100% mortality),5 (100% mortality),31/40,–,–

Molecule,"Herbicide (total preemergence rating) [1, 4]",Mite Ova rating [2],Mite Adult rating [3],"Herbicide (total preemergence rating) [1, 5]","Herbicide (total preemergence rating) [1, 6]","Herbicide (total preemergence rating) [1, 7]"
"O=C(OC1=C(c2c(Cl)cccc2Cl)C(=O)c2ccccc21)c1ccc(Cl)c(Cl)c1 [3-(3,4-Dichlorobenzoyloxy)-2-(2',6'-dichlorophenyl)indone]",–,5 (100% mortality),5 (100% mortality),29/40,–,–
"COc1ccc(C(=O)OC2=C(c3c(Cl)cccc3Cl)C(=O)c3ccccc32)cc1 [3-(4-Methoxybenzoyloxy)-2-(2',6'-dichlorophenyl)indone]",–,5 (100% mortality),5 (100% mortality),–,22/30,–
"COc1ccc(C(=O)OC2=C(c3c(C)cc(C)cc3C)C(=O)c3ccccc32)cc1 [3-(4-Methoxybenzoyloxy)-2-(2',4',6'-trimethylphenyl)indone]",–,5 (100% mortality),3 (an approximately 50% mortality),–,21/30,–
CCCCCCCCCCCCCCCC(=O)OC1=C(c2ccccc2C)C(=O)c2ccccc21 [2-(2'-Methylphenyl)-3-(palmitoyloxy)indone],4/20,5 (100% mortality),3 (an approximately 50% mortality),–,–,–
"CCCCCCCCCCCC(=O)OC1=C(c2c(C)cc(C)cc2C)C(=O)c2ccccc21 [2-(2',4',6'-Trimethylphenyl)-3-(dodecanoyloxy)indone]",17/20,5 (100% mortality),5 (100% mortality),–,–,–
"Cc1cc(C)c(C2=C(OC(=O)c3ccc([N+](=O)[O-])cc3)c3ccccc3C2=O)c(C)c1 [3-(4-Nitrobenzoyloxy)-2-(2',4',6'-trimethylphenyl)indone]",–,5 (100% mortality),5 (100% mortality),–,26/30,–
"CCCCN(C)C(=O)OC1=C(c2c(C)cc(C)cc2C)C(=O)c2ccccc21 [2-(2',4',6'-Trimethylphenyl)-3-(N-butyl-N-methylcarbamoyloxy)indone]",4/20,1,1,–,–,–
"COc1cccc(OC)c1C(=O)OC1=C(c2c(C)cc(C)cc2C)C(=O)c2ccccc21 [3-(2,6-Dimethoxybenzoyloxy)-2-(2',4',6'-trimethylphenyl)indone]",4/20,1,1,–,–,–
"Cc1cc(C)c(C2=C(OC(=O)N(C)C3CCCCC3)c3ccccc3C2=O)c(C)c1 [2-(2',4',6'-Trimethylphenyl)-3-(N-cyclohexyl-N-methylcarbamoyloxy)indone]",16/20,5 (100% mortality),5 (100% mortality),–,–,–
"CCCCCCCCCCCCCCCCCCOC(=O)OC1=C(c2c(C)cc(C)cc2C)C(=O)c2ccccc21 [2-(2',4',6'-Trimethylphenyl)-3-(octadecyloxycarbonyloxy)indone]",–,5 (100% mortality),5 (100% mortality),–,–,13/15
"Cc1cc(C)c(C2=C(OC(=O)OC3=C(c4c(C)cc(C)cc4C)C(=O)c4ccccc43)c3ccccc3C2=O)c(C)c1 [Bis[2-(2',4',6'-Trimethylphenyl)Indon-3-yl]Carbonate]",15/20,5 (100% mortality),5 (100% mortality),–,–,–
"CNC(=O)N(C)C(=O)OC1=C(c2c(C)cc(C)cc2C)C(=O)c2ccccc21 [2-(2',4',6'-Trimethylphenyl)-3-(2,4-dimethylallophanoyloxy)indone]",16/20,5 (100% mortality),1,–,–,–
"2-(2',6'-Dichlorophenyl)-5(6)-methyl-3-(pivaloyloxy)indone",–,5 (100% mortality),5 (100% mortality),24/40,–,–
"Cc1cc(C)c(C2=C(OC(=O)c3cccnc3)c3ccccc3C2=O)c(C)c1 [2-(2',4',6'-Trimethylphenyl)-3-(3-pyridinecarbonyloxy)indone]",18/20,5 (100% mortality),5 (100% mortality),–,–,–
"Cc1cc(C)c(C2=C(OC(=O)c3ccccc3C)c3ccccc3C2=O)c(C)c1 [3-(2-Methylbenzoyloxy)-2-(2',4',6'-trimethylphenyl)indone]",–,5 (100% mortality),5 (100% mortality),–,19/30,–
"Cc1cc(C)c(C(=O)OC2=C(c3c(Cl)cccc3Cl)C(=O)c3ccccc32)c(C)c1 [3-(2,4,6-Trimethylbenzoyloxy)-2-(2',6'-dichlorophenyl)indone]",–,1,1,–,–,6/15
